Experimental data from patent publication US11994512B2, “Single-cell genomic methods to generate ex vivo cell systems that recapitulate in vivo biology with improved fidelity” (Massachusetts Institute of Technology, priority 2018, dated 2024).

Test system: intracellular proteome of ENR+CD and ENR organoids
Test: LC-MS/MS TMT proteomics of ENR+CD versus ENR organoids
Format: cell-based, C57BL/6 mice
Conditions: for change: up = enriched in ENR+CD, down = enriched in ENR, FDR<0.05 and log fold change cut-off
Excerpt: Because PCs are highly secretory, protein-rich cells, Applicants sought to assess the total intracellular proteome between conditions through liquid chromatography mass spectrometry (LC-MS/MS)-based proteomics. Applicants quantified relative protein abundance across eight samples using isobaric mass tag labeling from four ENR and four ENR+CD samples (M1-1 through M2-2, first digit denotes biological donor, second digit denotes technical replicate) (FIG. 3A). Samples were processed and analyzed in a single 10-plex by LC-MS/MS (FIG. 9A).
To affirm the reproducibility of the associated proteins in the ENR+CD-enriched proteome, Applicants performed relative quantification within differentiation sets.
Mass spectrometry proteomics sample preparation, sequencing, and quantification. Organoid cell pellets were isolated from Matrigel with mechanical dissociation and washed (cold PBS 5X) to remove residual extracellular protein. Proteins were extracted from cell pellets with 8 M urea (Sigma), reduced with 5 mM DTT (Thermo Fisher Pierce) for 45 minutes, alkylated with 10 mM IAA (Sigma) for 45 minutes in the dark, and double digested with both Lysyl Endopeptidase “LysC” (Wako) and trypsin (Promega) overnight at RT. A small aliquot of cellular lysate was removed from each sample for protein quantification via the Pierce™ BCA Protein Assay Kit (Pierce). After proteolytic digestion, the samples were quenched using formic acid to a final concentration of 1.0% and subsequently desalted on 10 mg OASIS HLB solid phase columns (Waters).
The peptides were labeled with TMT-10 isobaric mass tag reagent according to manufacturer's instructions (ThermoFisher Scientific). The peptides were labeled at a 1:8 ratio of peptide to TMT reagent, followed by 1-hour incubation at RT with bench top shaking at 850 rpm. After incubation, a […] of labeled tryptic peptide was removed from each labeled condition, desalted with C18 stage tips, and analyzed via LC-MS/MS using a Thermo Fisher Q Exactive Plus Hybrid Mass Spectrometer (QE-Plus) coupled to a Thermo Fisher EASY-nLC 1000 liquid chromatograph to ensure isobaric label incorporation >95%. An additional 1.0 μg of labeled tryptic peptide was removed from each channel, mixed together, desalted on a C18 stage tip, and analyzed via LC-MS to ensure equal relative protein loads. During these quality control steps, the labeled peptides were stored, unquenched at −80° C.

[1] = protein abundance, ENR+CD versus ENR organoids, aggregate of the four sample pairs
[2] = protein abundance, ENR+CD versus ENR organoids, replicate M1-1, log2 ratio
[3] = protein abundance, ENR+CD versus ENR organoids, replicate M1-2, log2 ratio
[4] = protein abundance, ENR+CD versus ENR organoids, replicate M2-1, log2 ratio
[5] = protein abundance, ENR+CD versus ENR organoids, replicate M2-2, log2 ratio
[6] = ENR+CD versus ENR organoids, sample pairs in aggregate (n=4, 2 technical replicates from two biological donors)
[7] = protein abundance ratio ENR+CD versus ENR organoids, sample pair M1-1, LC-MS/MS TMT proteomics
[8] = protein abundance ratio ENR+CD versus ENR organoids, sample pair M1-2, LC-MS/MS TMT proteomics
[9] = protein abundance ratio ENR+CD versus ENR organoids, sample pair M2-1, LC-MS/MS TMT proteomics
[10] = protein abundance ratio ENR+CD versus ENR organoids, sample pair M2-2, LC-MS/MS TMT proteomics

B9EJA2
Average logFC [1]: −1.156
M1-1 Log2 Median Normalized [2]: −1.439
M1-2 Log2 Median Normalized [3]: −1.031
M2-1 Log2 Median Normalized [4]: −0.9535
M2-2 Log2 Median Normalized [5]: −1.2
change: down

O70472
Average logFC [1]: 1.172
M1-1 Log2 Median Normalized [2]: 1.419
M1-2 Log2 Median Normalized [3]: 0.87
M2-1 Log2 Median Normalized [4]: 1.3875
M2-2 Log2 Median Normalized [5]: 1.011
change: up

O70514
Average logFC [1]: −1.202
M1-1 Log2 Median Normalized [2]: −1.413
M1-2 Log2 Median Normalized [3]: −1.091
M2-1 Log2 Median Normalized [4]: −1.0895
M2-2 Log2 Median Normalized [5]: −1.216
change: down

P02798
Average logFC [1]: −2.904
M1-1 Log2 Median Normalized [2]: −2.904
M1-2 Log2 Median Normalized [3]: −2.907
M2-1 Log2 Median Normalized [4]: −2.2505
M2-2 Log2 Median Normalized [5]: −3.047
change: down

P02802
Average logFC [1]: −1.725
M1-1 Log2 Median Normalized [2]: −2.19
M1-2 Log2 Median Normalized [3]: −2.322
M2-1 Log2 Median Normalized [4]: −1.3715
M2-2 Log2 Median Normalized [5]: −1.016
change: down

P07309
Average logFC [1]: 1.249
M1-1 Log2 Median Normalized [2]: 1.309
M1-2 Log2 Median Normalized [3]: 0.951
M2-1 Log2 Median Normalized [4]: 1.2255
M2-2 Log2 Median Normalized [5]: 1.511
change: up

P07310
Average logFC [1]: −2.279
M1-1 Log2 Median Normalized [2]: −1.418
M1-2 Log2 Median Normalized [3]: −3.14
M2-1 Log2 Median Normalized [4]: −2.0165
M2-2 Log2 Median Normalized [5]: −2.541
change: down

P09405
Average logFC [1]: −1.217
M1-1 Log2 Median Normalized [2]: −1.377
M1-2 Log2 Median Normalized [3]: −0.807
M2-1 Log2 Median Normalized [4]: −1.0695
M2-2 Log2 Median Normalized [5]: −1.615
change: down

P18894
Average logFC [1]: −1.376
M1-1 Log2 Median Normalized [2]: −1.222
M1-2 Log2 Median Normalized [3]: −1.706
M2-1 Log2 Median Normalized [4]: −1.8305
M2-2 Log2 Median Normalized [5]: −0.745
change: down

P47968
Average logFC [1]: −1.292
M1-1 Log2 Median Normalized [2]: −0.958
M1-2 Log2 Median Normalized [3]: −1.223
M2-1 Log2 Median Normalized [4]: −1.2935
M2-2 Log2 Median Normalized [5]: −1.827
change: down

P56382 (MVAYWRQAGLSYIRFSQICAKAVRDALKTEFKANAEKTSGSSIKIVKVSKKE; full-length; UniProt P56382 1-52, looked up)
Average logFC [1]: −2.387
M1-1 Log2 Median Normalized [2]: −1.051
M1-2 Log2 Median Normalized [3]: −3.179
M2-1 Log2 Median Normalized [4]: −1.3955
M2-2 Log2 Median Normalized [5]: −3.924
change: down

P56716
Average logFC [1]: 1.303
M1-1 Log2 Median Normalized [2]: 0.494
M1-2 Log2 Median Normalized [3]: 1.733
M2-1 Log2 Median Normalized [4]: 1.3015
M2-2 Log2 Median Normalized [5]: 1.329
change: up

P84102 (MTRGNQRELARQKNMKKQSDSVKGKRRDDGLSAAARKQRDSEIMQQKQKKANEKKEEPK; full-length; UniProt P84102 1-59, looked up)
Average logFC [1]: 1.286
M1-1 Log2 Median Normalized [2]: 1.517
M1-2 Log2 Median Normalized [3]: 0.63
M2-1 Log2 Median Normalized [4]: 2.2205
M2-2 Log2 Median Normalized [5]: 0.775
change: up

P97328
Average logFC [1]: −1.236
M1-1 Log2 Median Normalized [2]: −1.151
M1-2 Log2 Median Normalized [3]: −2.263
M2-1 Log2 Median Normalized [4]: −1.4115
M2-2 Log2 Median Normalized [5]: −0.12
change: down

P97479
Average logFC [1]: −1.162
M1-1 Log2 Median Normalized [2]: −1.135
M1-2 Log2 Median Normalized [3]: −1.101
M2-1 Log2 Median Normalized [4]: −1.2195
M2-2 Log2 Median Normalized [5]: −1.191
change: down

Q4ACU6
Average logFC [6]: −1.637
M1-1 Log2 Median Normalized [7]: −1.525
M1-2 Log2 Median Normalized [8]: −1.512
M2-1 Log2 Median Normalized [9]: −1.6745
M2-2 Log2 Median Normalized [10]: −1.835
change: down

Q6ZWR6
Average logFC [6]: 1.168
M1-1 Log2 Median Normalized [7]: 1.167
M1-2 Log2 Median Normalized [8]: 0.703
M2-1 Log2 Median Normalized [9]: 1.1985
M2-2 Log2 Median Normalized [10]: 1.566
change: up

Q7JJ13
Average logFC [6]: −1.145
M1-1 Log2 Median Normalized [7]: −1.243
M1-2 Log2 Median Normalized [8]: −0.748
M2-1 Log2 Median Normalized [9]: −0.9235
M2-2 Log2 Median Normalized [10]: −1.666
change: down

Q8BHB9
Average logFC [6]: −1.288
M1-1 Log2 Median Normalized [7]: −1.576
M1-2 Log2 Median Normalized [8]: −1.245
M2-1 Log2 Median Normalized [9]: −1.3195
M2-2 Log2 Median Normalized [10]: −1.01
change: down

Q8BRB7
Average logFC [6]: −1.345
M1-1 Log2 Median Normalized [7]: −0.966
M1-2 Log2 Median Normalized [8]: −1.077
M2-1 Log2 Median Normalized [9]: −1.3755
M2-2 Log2 Median Normalized [10]: −1.962
change: down

Q8R0T2
Average logFC [6]: −1.493
M1-1 Log2 Median Normalized [7]: −1.662
M1-2 Log2 Median Normalized [8]: −0.647
M2-1 Log2 Median Normalized [9]: −0.8365
M2-2 Log2 Median Normalized [10]: −2.825
change: down

Q8VHB5
Average logFC [6]: −1.632
M1-1 Log2 Median Normalized [7]: −1.611
M1-2 Log2 Median Normalized [8]: −1.401
M2-1 Log2 Median Normalized [9]: −1.7625
M2-2 Log2 Median Normalized [10]: −1.754
change: down

Q9CPS7
Average logFC [6]: −1.227
M1-1 Log2 Median Normalized [7]: −1.383
M1-2 Log2 Median Normalized [8]: −1.226
M2-1 Log2 Median Normalized [9]: −0.9215
M2-2 Log2 Median Normalized [10]: −1.327
change: down

Q9D937
Average logFC [6]: −1.943
M1-1 Log2 Median Normalized [7]: −2.074
M1-2 Log2 Median Normalized [8]: −1.942
M2-1 Log2 Median Normalized [9]: −1.0675
M2-2 Log2 Median Normalized [10]: −2.286
change: down

Q9ET22
Average logFC [6]: 1.277
M1-1 Log2 Median Normalized [7]: 1.451
M1-2 Log2 Median Normalized [8]: 1.159
M2-1 Log2 Median Normalized [9]: 1.3455
M2-2 Log2 Median Normalized [10]: 1.153
change: up

Q9JMC3
Average logFC [6]: 1.386
M1-1 Log2 Median Normalized [7]: 1.758
M1-2 Log2 Median Normalized [8]: 0.805
M2-1 Log2 Median Normalized [9]: 1.3105
M2-2 Log2 Median Normalized [10]: 1.67
change: up

Q9QWG7
Average logFC [6]: −1.142
M1-1 Log2 Median Normalized [7]: −1.032
M1-2 Log2 Median Normalized [8]: −1.575
M2-1 Log2 Median Normalized [9]: −1.8475
M2-2 Log2 Median Normalized [10]: −0.115
change: down

Q9R0M0
Average logFC [6]: 1.229
M1-1 Log2 Median Normalized [7]: 1.297
M1-2 Log2 Median Normalized [8]: 0.675
M2-1 Log2 Median Normalized [9]: 1.2135
M2-2 Log2 Median Normalized [10]: 1.732
change: up

Q52KR3
Average logFC [6]: −1.393
M1-1 Log2 Median Normalized [7]: −2.118
M1-2 Log2 Median Normalized [8]: −0.268
M2-1 Log2 Median Normalized [9]: −1.3905
M2-2 Log2 Median Normalized [10]: −1.67
change: down

Q80SU7
Average logFC [6]: −1.224
M1-1 Log2 Median Normalized [7]: −1.279
M1-2 Log2 Median Normalized [8]: −0.758
M2-1 Log2 Median Normalized [9]: −1.2235
M2-2 Log2 Median Normalized [10]: −1.338
change: down

Q80TR4
Average logFC [6]: 1.235
M1-1 Log2 Median Normalized [7]: 1.316
M1-2 Log2 Median Normalized [8]: 1.587
M2-1 Log2 Median Normalized [9]: 1.2175
M2-2 Log2 Median Normalized [10]: 0.818
change: up

Q91VE6
Average logFC [6]: −1.411
M1-1 Log2 Median Normalized [7]: −1.492
M1-2 Log2 Median Normalized [8]: −1.242
M2-1 Log2 Median Normalized [9]: −1.0275
M2-2 Log2 Median Normalized [10]: −1.884
change: down

Q91WA1
Average logFC [6]: −1.673
M1-1 Log2 Median Normalized [7]: −1.929
M1-2 Log2 Median Normalized [8]: −0.883
M2-1 Log2 Median Normalized [9]: −1.5765
M2-2 Log2 Median Normalized [10]: −2.303
change: down

Q03172
Average logFC [1]: 1.206
M1-1 Log2 Median Normalized [2]: 0.832
M1-2 Log2 Median Normalized [3]: 1.656
M2-1 Log2 Median Normalized [4]: 1.2325
M2-2 Log2 Median Normalized [5]: 1.102
change: up
